What was measured:
[1] = In vitro stability of lutein in pH 7.0 buffer (UV-VIS degradation ratio); format: physicochemical
Procedure: 10.0 mg ([…]) lutein in 10 ml was added to a volumetric flask and diluted to volume with THF. In a small beaker, 0.50 g PEO (20) sorbitan monooleate was dissolved in 15.0 g de-ionized water. 1.0 ml lutein THF solution was added into the water solution and sonicated until a clear yellow micro-emulsion was formed.
10.0 mg (0.006 mmol) bilberry extract was added to a second 10 ml volumetric flask and filled to volume with de-ionized water. 1.0 ml bilberry extract solution was transferred to a small beaker and sonicated until a homogeneous solution was obtained. 1.0 ml of the bilberry solution was placed into a 10 ml colorless volumetric flask and filled to volume with sodium phosphate buffer (pH=7.0). The buffered solution was placed into a 37° C. water bath for 5 hours. UV-VIS spectrometery was used to analyze the degradation ratio. All samples were made alike. Similarly, L-cysteine was used in place of bilberry extract.

[2] = tested on: CaCo-2 cells; assay: Cellular uptake of Lutein and Zeaxanthine in CaCo-2 cells with or without black currant extract; format: in vitro ADME; conditions: for Level observed in cells: 9 mg Lutein+1 mg Zeaxanthine/100 mL; for Absorption in presence of black currant extract (in words): compared with absence of black currant extract; for Factor by which absorption is increased in presence of Black Currant extract: with vs without Black Currant extract
Procedure: CaCo-2 cells were cultured in Dulbeccos's Modified Eagle Medium (DMEM) containing 20% fetal bovine serum, 1.2% nonessential amino acids, 0.83 mM L-glutamine, 1.2% penicillin-streptomycin and 0.1% mercaptoethanole in an atmosphere of 5% CO2 and 95% air at 37° C.
(§1) Cells were grown in 75 cm^2 culture-flasks (T75) and sub-cultured after one week (every other day washed with PBS buffer, removed with trypsin and transferred to a new culture flask).
(§2) For experiments, cells were seeded in 6 well plates at a density of 3×10^5 cells per well and grown in an atmosphere of 5% CO2 and 95% air at 37° C., 7 to 8 days until confluence was reached. The cells were washed with PBS buffer, incubated with 4 ml medium containing the suspended samples for 30, 60 or 120 minutes.
(§3) After the corresponding incubation time, the cells were washed with PBS buffer and removed using 1 ml of TBME. Cells were sonicated 3 times for 30 seconds, centrifuged for 10 min and the pellets were discarded. The supernatant was used as sample for HPLC (lutein).
Cmax was taken directly from the concentration/time data obtained from the analysis.
The concentration/time data obtained from the analysis were further submitted to non-compartmental calculation of the AUC0-120min using the trapezoidal rule.
(§4) Quantification was performed by external standardization after linear regression analysis.
CaCo-2 cells were incubated with (9 mg Lutein+1 mg Zeaxanthine, see Table 6)/100 mL with or without 160 mg black currant extract/100 mL medium. Incubations were performed at 37° C. for 30, 60 and 120 minutes. At each time point, 3 wells were processed for analysis by collection of the incubation medium and extraction of Lutein/Zeaxanthine absorbed into the cells.

[3] = Cellular uptake of Lutein (free form) in CaCo-2 cells; format: in vitro ADME; conditions: human, 10 mg Lutein/100 mL medium, alone or plus 160 mg bilberry extract or 180 mg Bil/Cys
Procedure: (§5) CaCo-2 cells were cultured in Dulbeccos's Modified Eagle Medium containing 20% fetal bovine serum, 1.2% nonessential amino acids, 0.83 mM L-glutamine, 1.2% penicillin-streptomycin and 0.1% mercaptoethanole in an atmosphere of 5% CO2 and 95% air at 37° C.
as §1
as §2, with “C.” for “C.,”
as §3, with “(lutein). For luteindipalmitinic-ester the supernatant was hydrolyzed by reflux heating in ethanol/HCl.” for “(lutein).”
Cmax was taken directly from the concentration/time data obtained from the analysis. […]
Quantification was performed by external standardization after linear regression analysis. […]

[4] = Stability of Lutein and Zeaxanthine in incubation medium (control experiment); format: physicochemical; conditions: for Stability in incubation medium: 37° C.; for Breakdown in incubation medium (in words): test assay conditions, 120 minutes at 37° C.
Source text: In a control experiment, the stability of the analytes under the experimental conditions was investigated.

[5] = tested on: CaCo-2 cells; assay: Cellular uptake of Lutein (esterified form) in CaCo-2 cells; format: in vitro ADME; conditions: 20 mg Luteindipalmitinic-ester/100 mL medium, alone or plus 160 mg bilberry extract or 180 mg Bil/Cys; 37° C.; lutein quantified after hydrolysis
Procedure: as §5, §1
as §2, with “C.” for “C.,”, “minutes. […]” for “minutes.”
as §4
CaCo-2 cells were incubated with 20 mg Luteindipalmitinic-ester/100 mL medium, 20 mg (0.019 mmol) Luteindipalmitinic-ester plus 160 mg bilberry extract (25% anthocyanins, 0.08 mmol)/100 mL medium or 20 mg Luteindipalmitinic-ester plus 180 mg Bil/Cys [equivalent to 162 mg bilberry (25% anthocyanins, 0.081 mmol) and 18 mg (0.149 mmol) L-cysteine] at 37° C. for 30, 60 and 120 minutes. […] After hydrolysis of the luteinester, lutein was quantified in the cells.

[6] = Time 0 min, with BC (160 mg black currant extract/100 mL)
[7] = Time 30 min, with BC (160 mg black currant extract/100 mL)
[8] = Time 60 min, with BC (160 mg black currant extract/100 mL)
[9] = Time 120 min, with BC (160 mg black currant extract/100 mL)
[10] = with BC (160 mg black currant extract/100 mL)
[11] = Time 120 min, slight increase ascribed to evaporation of the medium

Compound | Relative cellular uptake (sum of lutein and Zeaxanthine set to 100%) ([2]; 30 min, With Black Currant) [%] | Relative cellular uptake (sum of lutein and Zeaxanthine set to 100%) ([2]; 30 min, Without Black Currant) [%] | Relative cellular uptake (sum of lutein and Zeaxanthine set to 100%) ([2]; 60 min, With Black Currant) [%] | Relative cellular uptake (sum of lutein and Zeaxanthine set to 100%) ([2]; 60 min, Without Black Currant) [%] | Relative cellular uptake (sum of lutein and Zeaxanthine set to 100%) ([2]; 120 min, With Black Currant) [%] | Relative cellular uptake (sum of lutein and Zeaxanthine set to 100%) ([2]; 120 min, Without Black Currant) [%] | Level observed in cells [2, 6] [ng/mL] | Level observed in cells ([2]; Time 0 min, without BC) [ng/mL] | Level observed in cells [2, 7] [ng/mL] | Level observed in cells ([2]; Time 30 min, without BC) [ng/mL] | Level observed in cells [2, 8] [ng/mL] | Level observed in cells ([2]; Time 60 min, without BC) [ng/mL] | Level observed in cells [2, 9] [ng/mL] | Level observed in cells ([2]; Time 120 min, without BC) [ng/mL] | Absorption in presence of black currant extract (in words) [2] | AUC0-120 of cellular uptake [2, 10] [µg·min/mL] | Cmax of cellular uptake [2, 10] [ng/mL] | Factor by which absorption is increased in presence of Black Currant extract [2] | AUC0-120 of cellular uptake ([2]; without BC) [µg·min/mL] | Cmax of cellular uptake ([2]; without BC) [ng/mL] | further results
N[C@@H](CS)C(=O)O [L-Cys, L-Cysteine] | – | – | – | – | – | – | – | – | – | – | – | – | – | – | – | – | – | – | – | – | Residual Ratio of lutein ([1]; 0.2 mg (0.17 μmol/ml) L-Cys, pH 7.0, 37° C., 5 hours, blank 86.82): 90.22%; Residual Ratio of lutein ([1]; 1.0 mg (0.8 μmol/ml) L-Cys, 4.3 μg free lutein, phosphate buffer pH 7.0, 37° C., 5 hours, blank (lutein alone) 86.82): 94.52%; Residual Ratio of lutein ([1]; 2.0 mg (1.7 μmol/ml) L-Cys, 4.3 μg free lutein, pH 7.0, 37° C., 5 hours, blank 86.82): 94.47%; Residual Ratio of lutein ([1]; 5.0 mg (4.1 μmol/ml) L-Cys, 4.3 μg free lutein, pH 7.0, 37° C., 5 hours, blank 86.82): 95.41%; Residual Ratio of lutein ([1]; 10.0 mg (8.2 μmol/ml) L-Cys, 4.3 μg free lutein, pH 7.0, 37° C., 5 hours, blank 86.82): 94.74%; Protection of lutein against degradation (in words) ([1]; neutral environmental conditions): remarkable protection; Concentration at which an enhanced protective effect on lutein was noted ([1]; pH 7.0, 37° C., 5 hours): about 4.1 μmol/ml
CC1=C[C@H](O)CC(C)(C)[C@H]1/C=C/C(C)=C/C=C/C(C)=C/C=C/C=C(C)/C=C/C=C(C)/C=C/C1=C(C)C[C@@H](O)CC1(C)C [Lutein, (3R,3′R,6′R)-beta, epsilon-carotene-3,3′-diol] | 87.3 | 85.6 | 85.8 | 85.5 | 86.6 | 87.3 | 0 | 0 | 2120 | 776 | 2346 | 1420 | 1897 | 1170 | better absorption | 226.1 | 2346 | ~2 | 122.3 | 1420 | AUC(0-t) at 10 mg/100 mL ([3]; 37° C., 0-120 min, read-out: Total uptake of Lutein (AUC0-120min, trapezoidal rule) (converted)): 2250 ng·h/mL; Cmax at 10 mg/100 mL ([3]; 37° C., 30, 60, 120 minutes): 1530 ng/mL; Stability in incubation medium ([4]; Time 0 min): 100%; Stability in incubation medium [4, 11]: 108%; Breakdown in incubation medium (in words) [4]: no breakdown
CCCCCCCCCCCCCCCC(=O)O[C@@H]1CC(C)=C(/C=C/C(C)=C/C=C/C(C)=C/C=C/C=C(C)/C=C/C=C(C)/C=C/[C@H]2C(C)=C[C@H](OC(=O)CCCCCCCCCCCCCCC)CC2(C)C)C(C)(C)C1 [Luteinester, Luteindipalmitinic-ester] | – | – | – | – | – | – | – | – | – | – | – | – | – | – | – | – | – | – | – | – | Cmax of cellular uptake of Luteinester [5]: 530 ng/mL; Total uptake of Luteinester (AUC0-120min, trapezoidal rule) [5]: 42.2 µg·min/mL
CC1=C(/C=C/C(C)=C/C=C/C(C)=C/C=C/C=C(C)/C=C/C=C(C)/C=C/C2=C(C)C[C@@H](O)CC2(C)C)C(C)(C)C[C@H](O)C1 [Zeaxanthine, (3R,3′R)-beta, beta carotene-3,3′-diol] | 12.7 | 14.4 | 14.2 | 14.5 | 13.4 | 12.7 | 0 | 0 | 309 | 131 | 363 | 240 | 314 | 181 | better absorption | 35.01 | 363 | ~2 | 20.17 | 240 | Absorption of zeaxanthine compared to lutein (in words) [2]: better absorption as compared to lutein; Stability in incubation medium ([4]; Time 0 min): 100%; Stability in incubation medium [4, 11]: 106%; Breakdown in incubation medium (in words) [4]: no breakdown

Reference: US20090181901A1, “COMPOSITIONS AND METHODS TO INCREASE BIOAVAILABILITY OF CAROTENOIDS” (priority 2007, published 2009)
